Reference: patent US20220146526A1, “METHOD FOR EVALUATING SAMPLE, ANALYSIS METHOD, METHOD FOR DETECTING DEGRADED SAMPLE, MARKER FOR DETECTING DEGRADED BLOOD PLASMA SAMPLE, AND MARKER FOR DETECTING DEGRADED SERUM SAMPLE” (SHIMADZU CORPORATION, priority 2019, published 2022)

assay: GC/MS of serum sample: number of times of freezing and thawing (Table I); format: physicochemical, human; parameters: key to Rate of increase or decrease / Rate of increase or decrease (first value, increase): detection intensity relative to 2 freeze-thaw cycles = 1; details: 10 times of freezing and thawing; detection intensity relative to 1 at 2 times
Method: (§1) After standing, the blood sample was subjected to centrifugation under a condition of room temperature, 3500 rpm, and 5 minutes. […] After centrifugation, the blood-collecting vessel was left to stand at room temperature, and the serum was isolated during this time. Here, in order to investigate how the detection intensity of molecules contained in the sample was affected in cases where the time during which the blood-collecting vessel was left at room temperature was set to 1 hour and 6 hours as compared to that in a case where the time was set to 30 minutes, preparations were performed under the respective conditions of 30 minutes, 1 hour, and 6 hours. The obtained serum sample was frozen and stored. Here, in order to investigate how the detection intensity of molecules contained in the sample was affected in cases where freezing and thawing was performed 4 times, 6 times, and 10 times after freezing as compared to that in a case where freezing and thawing was performed 2 times after freezing, freezing and thawing was performed under the respective conditions of 2, 4, 6, and 10 times.
(§2) Frozen blood plasma samples and serum samples were subjected to GC/MS or LC/MS. In GC/MS, the blood plasma samples and serum samples were subjected to methoxymation and trimethylsilylation and then introduced to GC-MS.
(§3) GC/MS was conducted using GCMS·TQ8040 (Shimadzu Corporation) that was a GC·MS equipped with AOC·20i (Shimadzu Corporation) as an autosampler.
(§4) Column: BPX5 (inner diameter of 0.25 mm, length of 30 m, and film thickness of 0.25 μm) (SGE)
(§5) Column temperature: maintained at 60° C. for 2 minutes, then raised at 15° C./min, and maintained at 330° C. for 3 minutes.
(§6) Inlet temperature: 250° C.
(§7) Carrier gas control mode: constant linear velocity of 39.0 cm/sec
(§8) Sample introduction method: split (split ratio of 30:1) Injection volume: 1 μL
(§9) Ionization method: electron ionization
(§10) Ionization current: 60 μA
(§11) Interface temperature: 280° C.
(§12) Ion source temperature: 200° C.
(§13) Mode: multiple reaction monitoring (MRM)
The rate of increase or decrease in Table I is the value of detection intensity relative to 1 that is the detection intensity in a case where the number of times of freezing and thawing is set to 2 times.

Row | Structure (SMILES) | Rate of increase or decrease
1 | CCCCCCCCC(=O)O [Pelargonic acid, pelargonic acid] | 0.67

same assay, conditions: detection intensity relative to 1 at 2 times; serum, GC/MS; freezing and thawing 4 times

Row | Structure (SMILES) | Rate of increase or decrease
2 | CCCCCCCC/C=C\CCCCCCCC(N)=O [Oleamide] | 2.08
3 | O=C(O)CCO [3-Hydroxypropionic acid] | 0.55

same assay, conditions: detection intensity relative to 1 at 2 times; serum, GC/MS; freezing and thawing 6 times

Row | Structure (SMILES) | Rate of increase or decrease
4 | O=C[C@H](O)[C@H](O)[C@H](O)[C@H](O)CO [Allose] | 0.62
5 | Nc1c(O)cccc1C(=O)O [3-Hydroxyanthranyl acid] | 1.34

same assay, conditions: detection intensity; serum, GC/MS; freezing and thawing 4 times vs 2 times

Row | Structure (SMILES) | Increase or decrease
6 | CCCCCCCC/C=C\CCCCCCCC(N)=O [Oleamide] | Increase
7 | O=C(O)CCO [3-Hydroxypropionic acid] | Decrease

same assay, conditions: detection intensity; serum, GC/MS; freezing and thawing 6 times vs 2 times

Row | Structure (SMILES) | Increase or decrease
8 | O=C[C@H](O)[C@H](O)[C@H](O)[C@H](O)CO [Allose] | Decrease
9 | Nc1c(O)cccc1C(=O)O [3-Hydroxyanthranyl acid] | Increase

same assay, conditions: serum sample, GC/MS; detection intensity changed by 30% or more vs 2 times of freezing and thawing

Row | Structure (SMILES) | Number of times when compound is affected [times]
10 | CNCC(=O)O [Sarcosine, sarcosine] | 10
11 | CCCCCCCCC(=O)O [Pelargonic acid, pelargonic acid] | 10

same assay, conditions: serum sample, GC/MS; detection intensity vs 2 times of freezing and thawing

Row | Structure (SMILES) | Increase or decrease
12 | CNCC(=O)O [Sarcosine, sarcosine] | Increase
13 | CCCCCCCCC(=O)O [Pelargonic acid, pelargonic acid] | Decrease

assay: GC/MS of serum sample: time from centrifugation to isolation (Table H); format: physicochemical, human; parameters: key to Rate of increase or decrease / Rate of increase or decrease (first value, increase): detection intensity relative to 1 at 30 min centrifugation-to-isolation; details: detection intensity relative to 1 at 30 minutes, after 1 hour
Method: as §1, §2, §3, §4, §5, §6, §7, §8, §9, §10, §11, §12, §13
The rate of increase or decrease in Table H is the value of detection intensity relative to 1 that is the detection intensity in a case where the time from centrifugation to isolation is set to 30 minutes.

Row | Structure (SMILES) | Rate of increase or decrease
14 | O=C(O)c1ccc(CO)o1 [5-Hydroxymethyl-2-furancarboxylic acid] | 1.71

same assay, conditions: detection intensity, after 1 hour vs 30 minutes

Row | Structure (SMILES) | Increase or decrease
15 | O=C(O)c1ccc(CO)o1 [5-Hydroxymethyl-2-furancarboxylic acid] | Increase

same assay, conditions: detection intensity, after 6 hours vs 30 minutes

Row | Structure (SMILES) | Increase or decrease
16 | O=C(O)CCO [3-Hydroxypropionic acid] | Different from individual

same assay, conditions: different from individual to individual, individuals with decrease, relative to 1 at 30 minutes, after 6 hours

Row | Structure (SMILES) | Rate of increase or decrease (second value, decrease)
17 | O=C(O)CCO [3-Hydroxypropionic acid] | 0.65

same assay, conditions: different from individual to individual, individuals with increase, relative to 1 at 30 minutes, after 6 hours

Row | Structure (SMILES) | Rate of increase or decrease (first value, increase)
18 | O=C(O)CCO [3-Hydroxypropionic acid] | 1.91

assay: GC/MS of serum sample: time from blood collection to centrifugation (Table G); format: physicochemical, human; details: detection intensity relative to 1 at 15 minutes, blood collection to centrifugation, after 4 hours
Method: as §1, §2, §3, §4, §5, §6, §7, §8, §9, §10, §11, §12, §13
The rate of increase or decrease in Table G is the value of detection intensity relative to 1 that is the detection intensity in a case where the time from blood collection to centrifugation is set to 15 minutes.

Row | Structure (SMILES) | Rate of increase or decrease
19 | Nc1c(O)cccc1C(=O)O [3-Hydroxyanthranyl acid] | 0.59

same assay, conditions: detection intensity, blood collection to centrifugation, after 4 hours vs 15 minutes

Row | Structure (SMILES) | Increase or decrease
20 | Nc1c(O)cccc1C(=O)O [3-Hydroxyanthranyl acid] | Decrease
